Here are results for four compounds from US20240199601A1, “QUINONE COMPOUND AND PHARMACEUTICAL USE THEREOF” (NANJING SHUPENG LIFE SCIENCE CO., LTD., priority 2021, published 2024).

Entries after “also recorded” stand apart in the source; their conditions may differ. Like-named read-outs stand apart in the source and are kept apart here.

Data set [1] concerns inflammatory pain model (complete Freund's adjuvant). Nature of the data set: Inflammatory pain model (complete Freund's adjuvant), mechanical pain threshold. It counts as in vivo, SD rats. As to conditions: for duration of the analgesic effect / analgesic effect 1.5 hours after oral administration: single oral dose (SP3101 20 mg/kg); for analgesic effect 1.5 hours after oral administration: mechanical pain threshold vs model group. As to the method:
4 SD rats with a body weight of 200-250 g were used as a blank control (NC), and normal saline was injected into the soles of the left feet of the rats. Inflammatory pain models of 18 rats were constructed, that is to say, 100 μL of a complete Freund's adjuvant was injected into soles of the left feet of the rats, mechanical pain thresholds of the left feet were detected by an ALMEMO2490 data collector 24 hours later, 2 rats with a pain threshold of greater than 15 were abandoned, and the other 16 rats were randomly divided into 4 groups with 4 rats in each group and then administered with water as a positive control (PC), SP3101 (20 mg/kg), PQQ (20 mg/kg) and ibuprofen (25 mg/kg/day) by gavage, respectively.

The test system of data set [2] is AMPK. Description: AMPK phosphorylation level in a variety of cells. It counts as cell-based. Conditions: 100 nM.
The subject of the next data set is acetaldehyde. As to conditions: 11.5 mg/kg body weight i.p. before ethanol by gavage; cited from earlier work.
Data set [3] relates to chronic constriction injury (CCI) model. As to conditions: CCI model of rats; cited from earlier work.
Another data set relates to humans. As to conditions: cited from earlier work.
The conditions of data set [4]: cited from earlier work.
The conditions of data set [5]: cited from earlier work. The source holds these as a separate data set.
The test system of the next data set is rats. As to conditions: oral, cited from earlier work.
For data set [6] the following is noted: beagles; cited from earlier work.
The subject of data set [7] is AMPK. Description: AMPK agonist test in RAW264.7 cells (protein hybridization, p-AMPK). It counts as cell-based. As to conditions: 0.1 μM, 24 hours. Here is the method:
(§1) RAW264.7 cells were inoculated into two six-well plates and enabled to grow to a density of about 90%, and SP3101 and SP3102 of different concentrations were added, respectively. 24 hours later, the cells were lysed with a radio immunoprecipitation assay (RIPA) lysis buffer, and the expression of proteins was detected by protein hybridization.
(§2) Phosphorylation of serine at the 127th site of AMPK is used as an activation marker. […] It can be seen that the compounds, represented by the SP3101 and the SP3102, of the present invention are used as an AMPK agonist.

Data set [8] deals with autophagy related protein (LC3B). Nature of the data set: LC3B expression in RAW264.7 cells (protein hybridization). As to conditions: different concentrations, 24 hours. It counts as cell-based. Here is the method:
as §1, §2

In data set [9] the test system is antioxidant transcription factor (Nrf2). Nature of the data set: Nrf2 expression in RAW264.7 cells (protein hybridization). It counts as cell-based. As to conditions: different concentrations, 24 hours. Here is the method:
as §1, §2

Setting [10] is: human volunteers, 60 mg/day for one month.
The mark [11] stands for this setting: 20 mg/kg/day orally for three days, rats.

For the compound `COc1cc(C(=O)O)c2c(n1)C(=O)C(=O)c1cc[nH]c1-2` [SP3103, 7-methoxy-4,5-dioxo-4,5-dihydro-1H-pyrrolo[2,3-f]quinone-9-carboxylic acid], in data set [1] (rats), the “duration of the analgesic effect” value is 72 h and the “analgesic effect 1.5 hours after oral administration” value is given as “obvious analgesic effect”.
For `CC(C)Cc1ccc(C(C)C(=O)O)cc1` (stereo not drawn) [ibuprofen], the “analgesic effect 1.5 hours after each oral administration” value in [1] (25 mg/kg once a day orally for 3 days, day 1/2/3, rats) is “obvious analgesic effect”. In addition, the “analgesic effect before administration” value in [1] (25 mg/kg once a day orally, rats, data not shown) is “no analgesic effect”. For the same compound, in data set [1] (after 25 mg/kg once a day orally for 3 days, rats), the “analgesic effect on the fourth day without administration” value is recorded as “no analgesic effect”.
`O=C(O)c1cc(C(=O)O)c2c(n1)C(=O)C(=O)c1cc(C(=O)O)[nH]c1-2` [PQQ, 4,5-dihydro-4,5-dioxo-1H-pyrrolo(2,3-f)quinone-2,7,9-tricarboxylic acid]: in the data set on AMPK [2], the “phosphorylation level of the AMPK” value was “significantly up-regulate”. In addition, in the data set on acetaldehyde, the “concentration of acetaldehyde vs control group” value is “much lower concentration of acetaldehyde”; the “concentration of ethanol in the blood and liver vs control group” value is given as “no obvious differences”. Also, the analgesic effect result in data set [3] was “had an analgesic effect”. Moreover, the “safe dose determined by the FDA (rarely adverse events)” value in the data set on humans (healthy adults, body weight about 60 kg, every day) was 240 mg. For the same compound, in the data set on humans (setting [10]), the adverse responses entry is “no adverse responses” and the “changes of kidney injury markers” value is reported as “no changes of kidney injury markers”. Besides, the solubility in water entry in data set [4] is reported as “slightly soluble in water”. The “excreted by the kidney (through urine)” value in [5] (24 hours after the administration) is 80%. The “absorbed by the small intestines” value in data set [5] (after oral administration) is on record as “about 60%”. Besides, in the data set on rats (female rats, 14 days), the Adverse response result is on record as “Reversible; also recorded: Increased kidney; also recorded: Increased urine” and the “Median lethal dose (LD50)” value is 500-1,000 mg/kg/day. Also, the Adverse response result in the data set on rats (female rats, 91 days, 400 mg/kg/day) is “None”. In addition, in the data set on rats (male rats, 14 days), the Adverse response result is reported as “None” and the “Median lethal dose (LD50)” value is recorded as 1,000-2,000 mg/kg/day. The Adverse response entry in the data set with rats (male rats, 91 days, 400 mg/kg/day) is listed as “None”. Besides, in [1] (setting [11]), the “analgesic effect 1.5 hours after oral administration on the first day” value is on record as “No analgesic effect” and the “analgesic effect on day 2/3/4/5/6/7” value was “obvious analgesic effect”. In addition, in data set [6], the bioavailability entry is recorded as “about 12%”.
On to `CC(=O)Oc1cc(C(=O)O)c2c(n1)C(=O)C(=O)c1cc[nH]c1-2` [SP3102, 7-acetoxy-4,5-dioxo-4,5-dihydro-1H-pyrrolo[2,3-f]quinone-9-carboxylic acid], for which the “phosphorylation level of the AMPK” value in the data set with AMPK [2] was “significantly up-regulate”. In the data set on AMPK [7], the “activation of AMPK (expression of p-AMPK)” value is given as “obviously activate the AMPK”. Also, the “expression of autophagy related protein (LC3B)” value in data set [8] was “also increased”. In data set [1] (rats), the “duration of the analgesic effect” value was determined as 72 h and the “analgesic effect 1.5 hours after oral administration” value is listed as “obvious analgesic effect”. The “expression of antioxidant transcription factor (Nrf2)” value in data set [9] is reported as “increased in a dose-dependent manner”.
